Reference: patent US9375457B2, “Composition comprising Rhizoma coptidis, Cortex phellodendri and Fructus gardeniae and for treating neurodegenerative diseases” (Hong Kong Baptist University, priority 2013, dated 2016)

Columns and labels:
[1] = tested on: intracellular Aβ1-40 and Aβ1-42 in N2a-SwedAPP cells; assay: Sandwich ELISA of intracellular Aβ in N2a-SwedAPP cells; format: cell-based, murine; parameters: key to Aβs (overall influence): ↓ decreased; ↑ increased; ? unchanged
Method: N2a-SwedAPP cells were seeded at a density of 4×10^5/mL in DMEM medium in a 6-well plate and cultured for 1 day. After transfer, cells were treated with different doses of RC, CP, FG and RS for 48 hours, then the extracellular media were collected for detection of sAPPα and sAPPβ-sw, and cells were harvested to quantify F1-APP and β-actin by Western blot analysis, as described previously by Durairajan et al. For intracellular APP, APP-CTFs and Aβ preparation, cells were washed with ice-cold PBS twice and solubilized in ice-cold RIPA buffer with protease inhibitor cocktail added. Lysates were collected and centrifuged at 16,000×g for 15 minutes at 4° C. The resulting supernatants were collected, and their protein concentrations were determined with bicinchoninic acid (BCA) protein assay reagent (Thermo Scientific, IL, USA). […] The conditioned media were standardized to total cell lysate protein.
The levels of intracellular Aβ1-40 and Aβ1-42 are quantified by using a sandwich ELISA as previously described by Durairajan et al., 2011 with minor modification. Equal amounts of cell or brain lysates are used for Aβ quantification by sandwich ELISA. The monoclonal antibody 6E10 is used as the capture antibody by adding to ELISA plates (0.2 μg diluted in 0.1 M Na2CO3 (pH 9.6) per well) and incubated overnight at 4° C. The plates are washed with PBS (0.05% Tween 20) and blocked with 4% BlockAce (Serotec, Raleigh, N.C., USA) for 2 hours at room temperature. Equilibrated protein lysates from each treatment (a 100 μL volume is adjusted in all treatment groups by using PBS) are applied in duplicate and incubated at room temperature for 2 hours with constant rotation at 30 rpm. Biotinylated monoclonal anti-Aβ40 5C3 (50 ng per well) and biotinylated monoclonal 8G7 (50 ng per well) antibodies are used for detection of Aβ1-40 and Aβ1-42, respectively, and are diluted in 1% BlockAce and incubated for 2 hours at room temperature. Plates are thoroughly washed with PBS (0.05% Tween 20), and streptavidin conjugated HRP is added for 1 hour at room temperature. Finally the plates are washed four times with PBST before adding the substrate TMB for 30 minutes. Absorbance at 450 nm is measured in duplicate wells after addition of 2 M H2SO4. All ELISA experimental data are from three different days. Synthetic Aβ40 and Aβ42 peptides are used for construction of calibration curves, and Aβ is measured in lysates.

[2] = tested on: APP processing (F1-APP, pAPPThr668, CTFs, sAPPα, sAPPβ-sw) in N2a-SwedAPP cells; assay: Western blot of APP metabolic products in N2a-SwedAPP cells; format: cell-based, murine; parameters: key to Fl-APP (overall influence) / CTFs (overall influence) / sAPPα (overall influence) / sAPPβ (overall influence): ↓ decreased; ↑ increased; ? unchanged
Method: (§1) N2a-SwedAPP cells were obtained from Dr. Gopal Thinakaran (University of Chicago, Chicago, Ill., USA). N2a-SwedAPP cells were cultured in Dulbecco's modified Eagle's medium (DMEM) and OPTI-MEM medium in a 1:1 ratio with 5% FBS, 50 μg/mL penicillin, 50 μg/mL streptomycin and 200 μg/mL G418 as previously described in Thinakaran G, Teplow D B, Siman R, Greenberg B, Sisodia S S (1996) Metabolism of the “Swedish” amyloid precursor protein variant in neuro2a (N2a) cells. J Biol Chem 271: 9390-9397. N2a-SwedAPP cells were incubated at 37° C. in a 5% CO2/95% humidity incubator. Cells were seeded 24 hours prior to the treatments. When growth reached close to 90% of confluence, cells were transferred into DMEM with 1% FBS for loading extracts. The final concentration of DMSO in all experiments was 0.1%, and this concentration caused no cytotoxicity.
To detect the levels of APP metabolic products, the cell lysates and the conditioned media were prepared as described in Durairajan S S K, Liu L F, Lu J H, Koo I, Maruyama K, Chung S K, Huang J D, Li M. (2011) Stimulation of non-amyloidogenic processing of amyloid-β protein precursor by cryptotanshinone involves activation and translocation of ADAM10 and PKC-α. J Alzheimer's Dis 25: 245-262, with minor modification. N2a-SwedAPP cells were seeded at a density of 4×10^5/mL in DMEM medium in a 6-well plate and cultured for 1 day. After transfer, cells were treated with different doses of RC, CP, FG and RS for 48 hours, then the extracellular media were collected for detection of sAPPα and sAPPβ-sw, and cells were harvested to quantify F1-APP and β-actin by Western blot analysis, as described previously by Durairajan et al. For intracellular APP, APP-CTFs and Aβ preparation, cells were washed with ice-cold PBS twice and solubilized in ice-cold RIPA buffer with protease inhibitor cocktail added. Lysates were collected and centrifuged at 16,000×g for 15 minutes at 4° C. The resulting supernatants were collected, and their protein concentrations were determined with bicinchoninic acid (BCA) protein assay reagent (Thermo Scientific, IL, USA). For sAPPα and sAPPβ-sw detection, the conditioned media are collected and frozen in liquid nitrogen, subjected to lyophilization at −40° C. under vacuum of 105 μbar for 2 days in order to remove all liquid. The conditioned media were standardized to total cell lysate protein.
For Western blot analysis from cell culture or mouse brain, 10-30 μg total protein is separated on 10% and 15% SDS-PAGE gels and blotted onto PVDF membranes for the detection of full length APP (F1-APP), CTFs, sAPPα, sAPPβ-sw, 3-actin and phosphorylated APP (pAPPThr668). After blocking with 5% skimmed milk, the blots are incubated with primary antibodies overnight at 4° C. with shaking. Blots are washed and incubated with HRP-conjugated secondary antibodies. The goat anti-mouse IgG is used when the primary antibody is 6E10 (1:1000), sAPPβ-sw (1:100), or anti-β-actin (1:5000), and the goat anti-rabbit IgG is used when the primary antibody is anti-CT15 (1:5000) or pAPPThr668 (1:1000). After incubation with HRP-conjugated secondary antibody, immunoblots are treated with ECL and developed using X-ray films (Fujifilm). Films are scanned, and the band intensity is analyzed using Image J software (NIH Image).
Stripped CT15 and 6E10 probed membranes are reincubated with pAPPThr668 and sAPPβ-sw 6A1 antibodies, respectively.
Western blotting of N2a-SwedAPP cells is used to test differences in the processing of Swedish mutant APP by HLJDT components. Several antibodies are used in Western blot analysis: CT15 recognizes full length APP (F1-APP), 6E10 identifies only α-secretase-cleaved APP i.e sAPPα, and the sAPPβ-sw specific for β-secretase cleavage of Swedish mutant APP.

TgCRND8 mice = conditions: chronic administration; cited from earlier work
N2a-SwedAPP cells = assay: MTT viability assay in N2a-SwedAPP cells; format: cell-based, murine; conditions: mouse, 48 h
Method: as §1
For the viability assay, N2a-SwedAPP cells were seeded in a 96-well plate (7000 cells/well and 5000 cells/well). […] Finally, optical intensity was measured using a BioRad plate reader at 570 nm and a reference of 620 nm. […]
N2a-SwedishAPP cells are widely used as a cellular model of Alzheimer's disease, because they express a high level of APP and Aβ. The effects of HLJDT and its components on viability of N2SwedAPP cells are monitored by using the MTT assay. […]

## COc1ccc2cc3[n+](cc2c1OC)CCc1cc2c(cc1-3)OCO2 [berberine]
[1]; 12.5 μM, 48 h
  reduction of intracellular Aβ1-40: 37%
  reduction of intracellular Aβ1-42: 25%
[1]; N2a-SwedAPP cells
  Aβs (overall influence): ↓
[2]; 6.25 μM, 48 hours
  reduction of sAPPα level: 30%
  reduction of sAPPβ-sw level: 45%
[2]; 12.5 μM, 48 hours
  reduction of CTFs level: 67%
  reduction of F1-APP level: 54%
  reduction of pAPPThr668 level: 42%
  reduction of sAPPα level: 58%
  reduction of sAPPβ-sw level: 70%
[2]; N2a-SwedAPP cells
  CTFs (overall influence): ↓
  Fl-APP (overall influence): ↓
  sAPPα (overall influence): ↓
  sAPPβ (overall influence): ↓
TgCRND8 mice
  effect on Aβ pathology, gliosis and cognitive impairments: significantly reduce
N2a-SwedAPP cells
  non-toxic concentration (highest concentration that shows greater than 90% cell viability): 12.5 µM
